Our source for the IC50 values is patent US20240158383A1, “RIBONUCLEOTIDE REDUCTASE (RNR) INHIBITORS AND USES THEREOF” (Boundless Bio, Inc., priority 2021, published 2024).

Test [1] relates to pCHK1 (S345) in Colo320 DM cells. The test can be described thus: CHK1 cellular activity (phospho-CHK1 AlphaLisa). It counts as cell-based, human. The following applies: Homo sapiens, COLO 320DM, 16 h, compound overnight (approximately 16 hours). An outline of the steps: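 Colo320 DM cells (50,000/well, RPMI-1640 with 10% FBS) were treated with compound overnight (~16 h) at 37 °C, final DMSO <0.5%. Lysates were assayed for pCHK1 (S345) by AlphaLisa SureFire, a replication-stress marker downstream of RNR inhibition.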
(In general: Alpha assays give light when donor and acceptor beads are brought close together.)

The target in a further test is RNR (RNR1:RNR2) (Homo sapiens (Human), UniProt P23921+P31350). The test can be described thus: RNR enzyme activity, rapid-fire mass spectrometry (RFMS) assay. The test is classed as biochemical. The note with it: [RNR] 50 nM, 1:1 RNR1:RNR2, [CDP] 5 μM, [ATP] 1 mM, 37° C., 45 min. An outline of the steps:
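RNR1:RNR2 (1:1, 50 nM final) was preincubated 15 min at room temperature with compound (10 nM–30 μM), then reacted 45 min at 37° C. with 5 μM CDP and 1 mM ATP, without NADPH. Reactions were stopped with 6% formic acid and read by RapidFire mass spectrometry.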

Sequence of RNR (RNR1:RNR2) (P23921 whole entry): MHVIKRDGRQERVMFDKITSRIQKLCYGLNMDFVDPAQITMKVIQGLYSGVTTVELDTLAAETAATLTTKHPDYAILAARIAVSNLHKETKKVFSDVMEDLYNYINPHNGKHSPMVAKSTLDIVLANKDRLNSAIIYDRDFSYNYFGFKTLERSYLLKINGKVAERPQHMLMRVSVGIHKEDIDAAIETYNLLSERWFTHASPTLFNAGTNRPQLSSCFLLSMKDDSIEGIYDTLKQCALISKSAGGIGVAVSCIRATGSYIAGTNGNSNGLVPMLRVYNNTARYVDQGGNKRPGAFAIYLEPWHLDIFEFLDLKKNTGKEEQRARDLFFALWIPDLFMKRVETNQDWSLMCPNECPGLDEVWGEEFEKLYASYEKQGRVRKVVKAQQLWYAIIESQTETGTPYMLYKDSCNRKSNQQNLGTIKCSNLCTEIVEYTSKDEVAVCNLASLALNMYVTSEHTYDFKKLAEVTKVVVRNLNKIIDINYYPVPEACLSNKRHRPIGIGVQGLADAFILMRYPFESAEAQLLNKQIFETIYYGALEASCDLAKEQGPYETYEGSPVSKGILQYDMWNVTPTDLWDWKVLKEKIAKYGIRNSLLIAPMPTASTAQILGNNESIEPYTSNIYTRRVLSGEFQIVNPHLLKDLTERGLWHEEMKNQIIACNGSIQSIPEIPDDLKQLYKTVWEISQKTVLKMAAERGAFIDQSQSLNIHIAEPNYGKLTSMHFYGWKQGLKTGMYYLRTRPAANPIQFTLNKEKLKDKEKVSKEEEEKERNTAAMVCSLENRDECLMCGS
Sequence of RNR (RNR1:RNR2) (P31350 whole entry): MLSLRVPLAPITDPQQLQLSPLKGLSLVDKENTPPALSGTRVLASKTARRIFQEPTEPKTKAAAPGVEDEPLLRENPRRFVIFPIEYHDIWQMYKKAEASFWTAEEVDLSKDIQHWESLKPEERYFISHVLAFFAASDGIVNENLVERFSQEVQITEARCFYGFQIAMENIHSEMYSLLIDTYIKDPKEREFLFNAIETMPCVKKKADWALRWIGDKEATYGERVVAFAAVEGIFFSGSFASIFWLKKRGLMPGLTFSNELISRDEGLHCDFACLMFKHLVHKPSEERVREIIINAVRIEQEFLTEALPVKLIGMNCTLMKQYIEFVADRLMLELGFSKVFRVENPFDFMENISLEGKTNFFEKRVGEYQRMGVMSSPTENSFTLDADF

In the case of `Cc1ccc(F)c([C@@H](C)[C@H](NS(=O)(=O)c2ccc(Cl)c([C@H](O)C(=O)N(C)C)c2)c2nn[nH]n2)c1C` [Example 58, (S)-2-(2-chloro-5-(N-((1S,2R)-2-(6-fluoro-2,3-dimethylphenyl)-1-(2H-tetrazol-5-yl)propyl)sulfamoyl)phenyl)-2-hydroxy-N,N-dimethylacetamide], the IC50 – broadly, the concentration at which inhibition is half-maximal – lay within 50 to 100 µM in test [1] and 0.1 to 1 µM against RNR (RNR1:RNR2).
For `Cc1ccc(F)c([C@@H](C)[C@H](NS(=O)(=O)c2ccc(Cl)c(C(C)(O)C(=O)N(C)C)c2)c2nn[nH]n2)c1C` (stereo partly drawn) [Example 59, 2-(2-chloro-5-(N-((1S,2R)-2-(6-fluoro-2,3-dimethylphenyl)-1-(2H-tetrazol-5-yl)propyl)sulfamoyl)phenyl)-2-hydroxy-N,N-dimethylpropanamide], in that order: 50 to 100 µM and 0.1 to 1 µM.
With `Cc1ccc(Cl)c(S(=O)(=O)N[C@H](c2nn[nH]n2)[C@H](C)c2c(F)ccc(C)c2C)c1` [Example 60, 2-chloro-N-((1S,2R)-2-(6-fluoro-2,3-dimethylphenyl)-1-(2H-tetrazol-5-yl)propyl)-5-methylbenzenesulfonamide], the IC50 in test [1] lay within 50 to 100 µM; against RNR (RNR1:RNR2) it was 1 to 5 µM.
In the case of `Cc1ccc(F)c([C@@H](C)[C@H](NS(=O)(=O)c2ccc(Cl)cc2C2CC2)c2nn[nH]n2)c1C` [Example 61, 4-chloro-2-cyclopropyl-N-((1S,2R)-2-(6-fluoro-2,3-dimethylphenyl)-1-(2H-tetrazol-5-yl)propyl)benzenesulfonamide], the IC50 is 10 to 30 µM in test [1] and 0.1 to 1 µM at RNR (RNR1:RNR2).
In the case of `COc1nc(Cl)ccc1S(=O)(=O)N[C@H](c1nn[nH]n1)[C@H](C)c1c(F)ccc(C)c1C` [Example 62, 6-chloro-N-((1S,2R)-2-(6-fluoro-2,3-dimethylphenyl)-1-(2H-tetrazol-5-yl)propyl)-2-methoxypyridine-3-sulfonamide], the 50% inhibitory concentration (IC50) in test [1] was 10 to 30 µM; against RNR (RNR1:RNR2), ≤ 0.1 µM.
Turning to `COc1cc(C#N)ccc1S(=O)(=O)N[C@H](c1nn[nH]n1)[C@H](C)c1c(F)ccc(C)c1C` [Example 64, 4-cyano-N-((1S,2R)-2-(6-fluoro-2,3-dimethylphenyl)-1-(2H-tetrazol-5-yl)propyl)-2-methoxybenzenesulfonamide], the concentration for half-maximal inhibition (IC50) in test [1] fell in the range of 50 to 100 µM; at RNR (RNR1:RNR2), 0.1 to 1 µM.
The matching figures for `Cc1ccc(F)c([C@@H](C)[C@H](NS(=O)(=O)c2ccc(Cl)c(C(F)(F)C(=O)N(C)C)c2)c2nn[nH]n2)c1C` [Example 72, 2-(2-chloro-5-(N-((1S,2R)-2-(6-fluoro-2,3-dimethylphenyl)-1-(2H-tetrazol-5-yl)propyl)sulfamoyl)phenyl)-2,2-difluoro-N,N-dimethylacetamide]: 50 to 100 µM and 0.1 to 1 µM.
Regarding `COc1c(S(=O)(=O)N[C@H](c2nn[nH]n2)[C@H](C)c2c(F)ccc(C)c2C)ccc(Cl)c1F` [Example 73, 4-chloro-3-fluoro-N-((1S,2R)-2-(6-fluoro-2,3-dimethylphenyl)-1-(2H-tetrazol-5-yl)propyl)-2-methoxybenzenesulfonamide], the IC50 fell in the range of 10 to 30 µM in test [1] and 0.1 to 1 µM against RNR (RNR1:RNR2).
The matching figures for `Cc1ccc(F)c([C@@H](C)[C@H](NS(=O)(=O)c2ccc(Cl)c3c2OCCC3)c2nn[nH]n2)c1C` [Example 74, 5-chloro-N-((1S,2R)-2-(6-fluoro-2,3-dimethylphenyl)-1-(2H-tetrazol-5-yl)propyl)chromane-8-sulfonamide]: ≤ 10 µM and ≤ 0.1 µM.
Consider `CNc1cc(Cl)ccc1S(=O)(=O)N[C@H](c1nn[nH]n1)[C@H](C)c1c(F)ccc(C)c1C` [Example 75, 4-chloro-N-((1S,2R)-2-(6-fluoro-2,3-dimethylpehnyl)-1-(2H-tetrazol-5-yl)propyl)-2-(methylamino)benzenesulfonamide], for which the figures for the half-inhibitory concentration (IC50) (in test [1]; on RNR (RNR1:RNR2)) were 10 to 30 µM and 0.1 to 1 µM, respectively.
Regarding `CNC(=O)c1cc(Cl)ccc1S(=O)(=O)N[C@H](c1nn[nH]n1)[C@H](C)c1c(F)ccc(C)c1C` [Example 76, 5-chloro-2-(N-((1S,2R)-2-(6-fluoro-2,3-dimethylphenyl)-1-(2H-tetrazol-5-yl)propyl)sulfamoyl)-N-methylbenzamide], the figures for the IC50 (in test [1]; against RNR (RNR1:RNR2)) were 50 to 100 µM and 0.1 to 1 µM, respectively.
The matching figures for `Cc1ccc(F)c([C@@H](C)[C@H](NS(=O)(=O)c2ccc(Cl)cc2N(C)CCO)c2nn[nH]n2)c1C` [Example 77, 4-chloro-N-((1S,2R)-2-(6-fluoro-2,3-dimethylphenyl)-1-(2H-tetrazol-5-yl)propyl)-2-((2-hydroxyethyl)(methyl)amino)benzenesulfonamide]: 10 to 30 µM and ≤ 0.1 µM.
On to `Cc1ccc(F)c([C@@H](C)[C@H](NS(=O)(=O)c2ccc(Cl)cc2N2CCOCC2)c2nn[nH]n2)c1C` [Example 78, 4-chloro-N-((1S,2R)-2-(6-fluoro-2,3-dimethylphenyl)-1-(2H-tetrazol-5-yl)propyl)-2-morpholinobenzenesulfonamide], for which the IC50 in test [1] fell in the range of 30 to 50 µM; on RNR (RNR1:RNR2), 0.1 to 1 µM.
Turning to `Cc1ccc(F)c([C@@H](C)[C@H](NS(=O)(=O)c2ccc(Cl)cc2N2CCN(C)CC2)c2nn[nH]n2)c1C` [Example 79, 4-chloro-N-((1S,2R)-2-(6-fluoro-2,3-dimethylphenyl)-1-(2H-tetrazol-5-yl)propyl)-2-(4-methylpiperazin-1-yl)benzenesulfonamide], the concentration for half-maximal inhibition (IC50) lay within 50 to 100 µM in test [1] and 0.1 to 1 µM against RNR (RNR1:RNR2).
With `Cc1ccc(F)c([C@@H](C)[C@H](NS(=O)(=O)c2ccc(Cl)cc2N2CCCCC2)c2nn[nH]n2)c1C` [Example 80, 4-chloro-N-((1S,2R)-2-(6-fluoro-2,3-dimethylphenyl)-1-(2H-tetrazol-5-yl)propyl)-2-(piperidin-1-yl)benzensulfonamide], the figures for the 50% inhibitory concentration (IC50) (in test [1]; against RNR (RNR1:RNR2)) were 30 to 50 µM and 0.1 to 1 µM, respectively.
